Measurements: ChEMBL document CHEMBL1765046, “Small molecule inhibitor of the RPA70 N-terminal protein interaction domain discovered using in silico and in vitro methods” (Bioorg Med Chem, 2011)
Activity calls are given as the source filed them. The rule behind the calls is not given here.

What was measured:
[1] = biological target: Replication protein A 70 kDa DNA-binding subunit (Homo sapiens) (UniProt P27694); assay: Inhibition of recombinant human N-terminal domain of RPA70 DNA binding domain-F binding to 30-mer double strand DNA at <100 uM preincubated for 5mins before dsDNA addition measured after 30 mins by electrophoretic mobility shift assay
Sequence of Replication protein A 70 kDa DNA-binding subunit (Homo sapiens) (P27694 whole entry, the tested form may be a part): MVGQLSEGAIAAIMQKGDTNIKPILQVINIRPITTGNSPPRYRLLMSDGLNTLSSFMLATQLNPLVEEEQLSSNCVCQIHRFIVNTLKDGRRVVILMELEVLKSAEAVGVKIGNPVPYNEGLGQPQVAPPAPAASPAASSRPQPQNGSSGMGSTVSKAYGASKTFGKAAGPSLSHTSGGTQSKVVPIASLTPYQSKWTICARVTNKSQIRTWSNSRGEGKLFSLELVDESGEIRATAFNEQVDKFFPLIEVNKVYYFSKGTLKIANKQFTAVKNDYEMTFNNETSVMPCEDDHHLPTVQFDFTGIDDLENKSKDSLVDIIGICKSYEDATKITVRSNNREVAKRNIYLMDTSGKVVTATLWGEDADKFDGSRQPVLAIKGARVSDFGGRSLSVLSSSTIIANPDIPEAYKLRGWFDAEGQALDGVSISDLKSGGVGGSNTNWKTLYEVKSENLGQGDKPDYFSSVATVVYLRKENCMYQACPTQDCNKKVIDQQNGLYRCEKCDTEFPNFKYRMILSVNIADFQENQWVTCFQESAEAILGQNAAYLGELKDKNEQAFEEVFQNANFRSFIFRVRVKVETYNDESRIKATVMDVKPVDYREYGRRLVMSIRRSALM

[2] = biological target: Replication protein A 70 kDa DNA-binding subunit (Homo sapiens) (UniProt P27694); assay: Inhibition of recombinant human N-terminal domain of RPA70 DNA binding domain-F binding to 30-mer single strand DNA at <100 uM preincubated for 5mins before ssDNA addition measured after 30 mins by electrophoretic mobility shift assay
[3] = biological target: Cellular tumor antigen p53/Replication protein A 70 kDa DNA-binding subunit (Homo sapiens, UniProt P04637+P27694); assay: Inhibition of GST-tagged p53/recombinant human N-terminal domain of RPA70 DNA binding domain interaction by ELISA-like plate binding assay
Sequence of Cellular tumor antigen p53/Replication protein A 70 kDa DNA-binding subunit (P04637 whole entry, the tested form may be a part): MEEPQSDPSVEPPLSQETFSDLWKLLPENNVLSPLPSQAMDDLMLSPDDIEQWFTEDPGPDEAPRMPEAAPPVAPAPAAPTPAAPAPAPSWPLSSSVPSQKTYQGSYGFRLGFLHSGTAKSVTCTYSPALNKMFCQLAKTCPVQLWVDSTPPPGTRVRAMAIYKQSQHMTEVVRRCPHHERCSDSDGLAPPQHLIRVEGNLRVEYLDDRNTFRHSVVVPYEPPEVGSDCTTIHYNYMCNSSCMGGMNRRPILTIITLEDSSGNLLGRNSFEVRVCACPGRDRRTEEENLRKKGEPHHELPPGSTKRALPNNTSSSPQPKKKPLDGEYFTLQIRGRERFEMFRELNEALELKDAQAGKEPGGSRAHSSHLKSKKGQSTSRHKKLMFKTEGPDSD
Sequence of Cellular tumor antigen p53/Replication protein A 70 kDa DNA-binding subunit (P27694 whole entry, the tested form may be a part): as the sequence (P27694 whole entry, the tested form may be a part) above

CC(C)C1=CC23CCC4C(C)(C(=O)O)CCCC4(C)C2CC1C(C(=O)O)C3C(=O)O (stereo not drawn)
inhibition [1]: Active | inhibition [2]: inactive | IC50 [3]: 10 µM
